Results published in patent publication US5631226A, “Treatment to reduce edema” (The Regents of the University of California, priority 1995, dated 1997).
No end group written: not given here.

Columns and labels:
[1] = system: edema-producing properties of inflammatory mediators in rat pawskin; conditions: mediators injected into the rat pawskin; previously shown; cited from earlier work
Pseudomonas = assay: Neutropenic rat model of sepsis (Pseudomonas infection), survival; format: in vivo; conditions: CRF 100 μg/kg i.v. twice a day for four days after onset of fever; day 11; 9/15; controls 100% mortality at 8 days
Description: The neutropenic rat model of sepsis, designed to mimic the systemic inflammatory response syndrome in humans, is described by Collins et al. from The Journal of Infectious Diseases, 159:6 (June 1989) and The Journal of Clinical Investigation, 88:885 (September 1991). […] The animals die from overwhelming infection within 7 to 9 days of infection and examination of the tissues with histological and pathological techniques reveal the characteristic organic manifestations of the systemic inflammatory response syndrome, namely, organ edema and tissue necrosis.
In a typical experiment, 10 rats serving as controls received saline and 15 rats received CRF at a dose of 100 μg/kg intravenously, given twice a day for four days after the onset of fever. At the end of 8 days, all of the animals in the control group were dead (100% mortality). By contrast, 60% (9/15) of the CRF group were still alive at day 11 when the experiment was concluded. The difference between the saline and CRF treated groups were statistically significant (P<0.002).

[2] = system: vascular permeability produced by cold injury in brain; assay: Cold (freeze) injury to brain, vascular leakage by Monastral blue staining; format: in vivo, rat
Description: An in vivo model of injury to study brain edema has been developed as a reproducible edema model, which has the features of immediate cortical damage followed by the subsequent development of brain edema. This model is described by Chan et al., Brain Research, 277, pp. 329-337 (1983). The model uses rats which are anesthetized. A 2.5 cm incision is made over the sagittal suture and the bone of the right hemisphere exposed. A 60 mm^2 plate attached to a brass cup filled with dry ice-acetone mixture, with a temperature of -50° C., is applied to the rat skull for one minute. The animals are sacrificed at various intervals after the onset of cold-injury. A dye is administered intravenously before the freezing. Cortical slices are then obtained of the brain.
Sixteen male rats were randomly divided into eight pairs and one rat in each pair received either saline or CRF (subcutaneously twice at 30 μg/kg, 30 min and 10 min before cold injury). The animals were anesthetized with sodium pentobarbital, 60 mg/kg intraperitoneally, and injected with Monastral blue, 60 mg/kg intravenously. A cold probe was applied onto the skull for four minutes and the brains taken out one hour after cold injury. The staining of brain tissues with Monastral blue, a colloidal pigment that gets trapped between the albuminal surface of the endothelial cell and the basement membrane, was proportional to the degree of vascular leakage. The results from the first pair are shown as FIG. 1.
The size of the lesion, measured as area in mm^2, and the degree of staining intensity, were quantified using an image-analysis software program called JAVA (Jandel Corporation, San Rafael, Calif.). The stain intensity, given in arbitrary units, was internally calibrated using Monastral blue solutions (1-30 mg/ml) placed on white filter paper. Values are mean ±S.E.M.

[3] = system: brain edema after freeze injury to cerebral cortex; assay: Freeze injury of cerebral cortex, water and sodium content as index of brain edema; format: in vivo, rat; conditions: CRF 30 μg/kg s.c. 2x, tissues 3 hr after injury, ±S.E.M., N=5
Method: In a second set of experiments, the brain surface, namely the cerebral cortex, was injured by freezing and the water and sodium content were measured in the cerebral cortex and in the basal ganglia, a part of the brain away from the freeze zone. The water and sodium content of the brain tissue served as an index of brain edema. After freeze injury, the water and sodium content of the cerebral cortex were evaluated relative to non-frozen tissues. CRF administered in two separate doses of 30 μg/kg subcutaneously, one dose 15 minutes before the injury and the second dose 90 minutes after the first dose, inhibited the two indices of brain edema.
Male SpragueDawley rats, 300-325 g, anesthetized with
ketamineacepromazine, were injected saline or CRF (30 μg/kg s.c. 2x)
and injury to cerebral cortex was produced by applying a cold probe to th
skull for 1 min. Brain tissues were obtained 3 hr later and analyzed for
water and sodium content.

[4] = system: vascular leakage after musculature injury (celiotomy); assay: Vascular leakage after celiotomy (4 cm midline incision through abdominal muscle wall); format: in vivo, rat; conditions: for Lesions Size: tissues 0.5 hour after surgery
Method: Experiments were conducted on male Sprague-Dawley rats 243±15 gm (S. D., Simonsen Labs., Gilroy, Calif.) anesthetized with sodium pentobarbital, 60 mg/kg i.p. Monastral blue, 60 mg/kg i.v., was injected 0.2 ml/100 g, 3 minutes before a 4 cm midline incision through the abdominal muscle wall (celiotomy). Saline or CRF was administered to randomized pairs with N=8 rats per group. The size of the lesion, measured as area in mm^2, and its light intensity, were quantified using the JAVA image-analysis software program. The light intensity, given in arbitrary units, was internally calibrated using Monastral blue solutions (1-30 mg/ml) placed on white filter paper. Values are mean±S.E.M. FIG. 2 illustrates the respective amount of vascular permeability for one pair of rats (control and treated). Tables III and IV set out data from these experiments.
CRF: inhected at various doses subcutaneously 30 minutes before a 4 cm
middle incision, tissues taken 0.5 hour after surgery.
CRF: 30 μg/kg s.c. injected 2 hour before a 4 cm midline incision,
tissues taken 0.5 hour after surgery

[5] = system: vascular leakage produced by PAF-acether; assay: Vascular leakage produced by PAF-acether injected subcutaneously into the abdomen; format: in vivo, rat; conditions: CRF 30 μg/kg s.c. 30 minutes before PAF-acether
Method: CRF: 30 μg/kg s.c. injected 30 minutes before subcutaneous injection o
PAFacether (1 μg/0.1 ml/rat) into the abdomen; muscle removed 0.5 hour

ACTH secretion = conditions: prior art report; cited from earlier work
blood pressure = conditions: prior art report; cited from earlier work
[6] = CRF 15 μg/kg s.c. 30 minutes before incision
[7] = CRF 30 μg/kg s.c. 30 minutes before incision
[8] = CRF 60 μg/kg s.c. 30 minutes before incision

Compound	effect on edema-producing properties of inflammatory mediators [1]	animals still alive (survival) (Pseudomonas)	lesion size of CRF-treated group relative to saline-treated group ([2]; CRF 30 μg/kg s.c. twice before cold injury)	Intensity (Monastral blue stain intensity) ([2]; CRF 30 μg/kg s.c. twice, 30 min and 10 min before cold injury, brains taken 1 hour after injury, mean ± S.E.M.)	blinded observer correctly assigns brains to saline or CRF group (more vs less damaged) ([2]; eight pairs of rats)	SODIUM mEq/kg dry ([3]; basal ganglia (non-injured))	WATER CONTENT % ([3]; basal ganglia (non-injured))	SODIUM mEq/kg dry ([3]; cerebral cortex (injured))	WATER CONTENT % ([3]; cerebral cortex (injured))	lesion size relative to saline-treated group [4, 6]	Lesions Size [4, 6]	lesion size relative to saline-treated group [4, 7]	Lesions Size [4, 7]	lesion size relative to saline-treated group ([4]; CRF 30 μg/kg s.c. 2 hour before incision)	lesion size relative to saline-treated group [4, 8]	Lesions Size [4, 8]	muscle lesion size relative to saline-treated control group [5]	effect on ACTH secretion (ACTH secretion)	effect on blood pressure (blood pressure)
CRF: 41 amino acid neuropeptide present in brain and peripheral nerve endings; stimulates ACTH release from pituitary cells (SEEPPISLDLTFHLLREVLEMARAEQLAQQAHSNRKLMEII; not fully specified; ends and bridges not checked; UniProt P06850 154-194, looked up)	antagonize the edema-producing properties	60%	44%	2.0 ± 0.05 arbitrary units	8 out of 8	215 ± 9 mEq/kg dry	76 ± 1%	271 ± 8 mEq/kg dry	77 ± 4%	63%	1031 ± 44	42%	676 ± 47	59%	29%	468 ± 19	44%		
CC[C@H](C)[C@H](NC(=O)[C@@H](NC(=O)[C@H](CC(=O)O)NC(=O)[C@H](CC(C)C)NC(=O)[C@H](CC(C)C)NC(=O)[C@H](CC(C)C)NC(=O)[C@H](CCCNC(=N)N)NC(=O)[C@H](CC(N)=O)NC(=O)[C@H](CC(N)=O)NC(=O)[C@H](C)NC(=O)[C@H](C)NC(=O)[C@H](CCC(N)=O)NC(=O)[C@H](CCC(N)=O)NC(=O)[C@H](CCCCN)NC(=O)[C@H](CCC(=O)O)NC(=O)[C@H](CCCCN)NC(=O)[C@H](CCC(=O)O)NC(=O)[C@H](CCC(N)=O)NC(=O)[C@H](CCCCN)NC(=O)[C@H](CCC(=O)O)NC(=O)[C@@H](NC(=O)[C@H](CCC(=O)O)NC(=O)[C@@H](NC(=O)[C@H](CCSC)NC(=O)[C@H](CCCCN)NC(=O)[C@H](CCCNC(=N)N)NC(=O)[C@H](CC(C)C)NC(=O)[C@H](CC(C)C)NC(=O)[C@H](CCC(=O)O)NC(=O)[C@H](CC(C)C)NC(=O)[C@H](CO)NC(=O)[C@H](CC(C)C)NC(=O)[C@H](CC(=O)O)NC(=O)[C@@H](NC(=O)[C@H](CO)NC(=O)[C@@H](NC(=O)[C@@H]1CCCN1C(=O)[C@@H]1CCCN1C(=O)CNC(=O)[C@@H]1CCC(=O)N1)[C@@H](C)CC)[C@@H](C)CC)[C@@H](C)CC)[C@@H](C)CC)[C@@H](C)O)C(N)=O [Sauvagine]																		stimulating the secretion of ACTH and β-endorphin	lowering blood pressure
